Each compound was assayed against DYRK1A (HT-497, 6×His tagged rat truncated DYRK1A isoform X1 residues 1-497) (Rattus norvegicus (Rat), UniProt Q63470) (assay: DYRK1A ELISA assay (HT-PRD phosphorylation)). Settings: 100 µM ATP, 5 ng HT-497, 30 min at 30° C.
Assay type: biochemical
Protocol: Compounds of Table 1, above, were examined in vitro for activity against DYRK1A, DYRK1B, DYRK2 via an ELISA assay.
DYRK1A assay. […] After blocking, wells were washed extensively with dilution buffer before subjecting to phosphorylation. […] At the end point, wells were washed with ˜350 μl dilution buffer three times to terminate the reaction. […] Each point was run in quadruplicate with DMSO present in all assays at 0.2% final concentration. […] HT-PRD phosphorylation was subsequently determined by the sandwich antibody staining protocol, first with 100 μl mouse mAb 3D3 specific for detecting DYRK1A-phosphorylated PRD (60 min at room temperature) then with 100 μl alkaline phosphatase (AP)-linked anti-mouse secondary antibody (60 min at room temperature), followed by colorimetric reaction with 100 μl PNPP solution (PNPP substrate tablet, Thermo Fisher). […] The readings were then recorded for subsequent IC50 calculation. The DYRK1A assay protocol can also support DYRK1B and DYRK2 phosphorylation reactions in the enzyme concentration-dependent manner; therefore, the method was adapted for measuring the activity of candidate compounds against DYRK1B and DYRK2. For DYRK2, the reactions were performed as described above with 6 ng HT-DYRK2 (6×His tagged full-length human DYRK2 isoform 1). For DYRK1B, the assays were also similarly conducted but with 70 ng GST-DYRK1B (glutathione S-transferase tagged full length human DYRK1B isoform p65) and an extended kinase reaction time of 60 min.
Dilution factors for both mAb 3D3 and secondary antibody were pre-determined for each batch of antibody to ensure that neither antibody was limiting in the assay.
Data transformation, calculation, plotting, curve fitting, and IC 50 calculation were performed in KaleidaGraph (http://www.synergy.com/wordpress_650164087; Mac version 4.1). Data was corrected for background (readings from wells with only PNPP) before subsequent manipulations. […] The resulting residual activity was then plotted against its corresponding inhibitor concentrations in semi-log graph and the plot was fit to the sigmoidal equation, y=a+(b−a)/(1+(x/c)^d), for IC50 calculation.
For O=C(O[C@@H]1Cc2c(O)cc(O)cc2O[C@@H]1c1ccc(O)c(O)c1)c1cc(O)c(O)c(O)c1 [Compound 6, (2R,3R)-2-(3,4-dihydroxyphenyl)-5,7-dihydroxychroman-3-yl 3,4,5-trihydroxybenzoate], the IC50 was over 100 nM. In the case of O=C(O[C@@H]1Cc2c(O)cc(O)cc2O[C@H]1c1ccc(O)c(O)c1)c1cc(O)c(O)c(O)c1 [Compound 7, (2S,3R)-2-(3,4-dihydroxyphenyl)-5,7-dihydroxychroman-3-yl 3,4,5-trihydroxybenzoate], the IC50 is reported as over 100 nM. With COc1cc(C(=O)O[C@@H]2Cc3c(O)cc(O)cc3O[C@@H]2c2cc(O)c(O)c(O)c2)cc(O)c1O [Compound 8, (2R,3R)-5,7-dihydroxy-2-(3,4,5-trihydroxyphenyl)chroman-3-yl 3,4-dihydroxy-5-methoxybenzoate] the IC50 was over 100 nM. O=C(N[C@H]1Cc2c(O)cc(O)cc2O[C@@H]1c1cc(O)c(O)c(O)c1)c1cc(O)c(O)c(O)c1 [Compound 9, N-((2R,3S)-5,7-dihydroxy-2-(3,4,5-trihydroxyphenyl)chroman-3-yl)-3,4,5-trihydroxybenzamide] was tested, and the IC50 was over 100 nM. COc1cc(C(=O)N[C@H]2Cc3c(O)cc(O)cc3O[C@@H]2c2cc(O)c(O)c(O)c2)cc(O)c1O [Compound 10, N-((2R,3S)-5,7-dihydroxy-2-(3,4,5-trihydroxyphenyl)chroman-3-yl)-3,4-dihydroxy-5-methoxybenzamide] was tested, and the IC50 was over 1000 nM. O=C(O[C@@H]1Cc2c(O)cc(O)cc2O[C@@H]1c1cc(O)c(O)c(O)c1)c1ccc(O)c(O)c1 [Compound 11, (2R,3R)-5,7-dihydroxy-2-(3,4,5-trihydroxyphenyl)chroman-3-yl 3,4-dihydroxybenzoate] gave an IC50 of over 100 nM. CCNC(=O)Oc1cc(C(=O)O[C@@H]2Cc3c(O)cc(O)cc3O[C@@H]2c2cc(O)c(O)c(O)c2)cc(O)c1O [Compound 12, (2R,3R)-5,7-dihydroxy-2-(3,4,5-trihydroxyphenyl)chroman-3-yl 3-((ethylcarbamoyl)oxy)-4,5-dihydroxybenzoate] showed an IC50 of over 100 nM. In the case of CCNC(=O)Oc1c(O)cc(C(=O)O[C@@H]2Cc3c(O)cc(O)cc3O[C@@H]2c2cc(O)c(O)c(O)c2)cc1O [Compound 13, (2R,3R)-5,7-dihydroxy-2-(3,4,5-trihydroxyphenyl)chroman-3-yl 4-((ethylcarbamoyl)oxy)-3,5-dihydroxybenzoate], the IC50 is reported as over 1000 nM. For CC(C)C(=O)Oc1c(O)cc(C(=O)O[C@@H]2Cc3c(O)cc(O)cc3O[C@@H]2c2cc(O)c(O)c(O)c2)cc1O [Compound 14, (2R,3R)-5,7-dihydroxy-2-(3,4,5-trihydroxyphenyl)chroman-3-yl 3,5-dihydroxy-4-(isobutyryloxy)benzoate], the IC50 was over 100 nM. O=C(N[C@H]1Cc2c(O)cc(O)cc2O[C@@H]1c1cc(O)c(O)c(O)c1)c1ccc(O)c(O)c1 [Compound 15, N-((2R,3S)-5,7-dihydroxy-2-(3,4,5-trihydroxyphenyl)chroman-3-yl)-3,4-dihydroxybenzamide] gave an IC50 of over 1000 nM. In the case of O=C(N[C@H]1Cc2c(O)cc(O)cc2O[C@@H]1c1cc(O)c(O)c(O)c1)c1ccc(O)cc1 [Compound 16, N-((2R,3S)-5,7-dihydroxy-2-(3,4,5-trihydroxyphenyl)chroman-3-yl)-4-hydroxybenzamide], the IC50 is reported as over 1000 nM. O=C(N[C@H]1Cc2c(O)cc(O)cc2O[C@@H]1c1cc(O)c(O)c(O)c1)c1ccc(F)c(F)c1 [Compound 17, N-((2R,3S)-5,7-dihydroxy-2-(3,4,5-trihydroxyphenyl)chroman-3-yl)-3,4-difluorobenzamide] gave an IC50 of over 1000 nM. With COc1cc(C(=O)O[C@H]2Cc3c(O)cc(O)cc3O[C@@H]2c2cc(O)c(O)c(O)c2)cc(O)c1O [Compound 18, (2R,3S)-5,7-dihydroxy-2-(3,4,5-trihydroxyphenyl)chroman-3-yl 3,4-dihydroxy-5-methoxybenzoate] the IC50 was over 100 nM. For O=C(O[C@H]1Cc2c(O)cc(O)cc2O[C@@H]1c1cc(O)c(O)c(O)c1)c1ccc(O)c(O)c1 [Compound 19, (2R,3S)-5,7-dihydroxy-2-(3,4,5-trihydroxyphenyl)chroman-3-yl 3,4-dihydroxybenzoate], the IC50 was over 100 nM. O=C(O[C@H]1Cc2c(O)cc(O)cc2O[C@@H]1c1cc(O)c(O)c(O)c1)c1ccc(O)cc1 [Compound 20, (2R,3S)-5,7-dihydroxy-2-(3,4,5-trihydroxyphenyl)chroman-3-yl 4-hydroxybenzoate] was tested, and the IC50 was over 1000 nM. For O=C(O[C@@H]1Cc2c(O)cc(O)cc2O[C@@H]1c1cc(O)c(O)c(O)c1)c1ccc(O)cc1 [Compound 21, (2R,3R)-5,7-dihydroxy-2-(3,4,5-trihydroxyphenyl)chroman-3-yl 4-hydroxybenzoate], the IC50 was over 1000 nM. O=C(O[C@H]1Cc2c(O)cc(O)cc2O[C@@H]1c1cc(O)c(O)c(O)c1)c1ccncc1 [Compound 22, (2R,3S)-5,7-dihydroxy-2-(3,4,5-trihydroxyphenyl)chroman-3-yl isonicotinate] was tested, and the IC50 was over 1000 nM. O=C(O[C@@H]1Cc2c(O)cc(O)cc2O[C@@H]1c1cc(O)c(O)c(O)c1)c1ccncc1 [Compound 23, (2R,3R)-5,7-dihydroxy-2-(3,4,5-trihydroxyphenyl)chroman-3-yl isonicotinate] was tested, and the IC50 was over 1000 nM. O=C(O[C@H]1Cc2c(O)cc(O)cc2O[C@@H]1c1cc(O)c(O)c(O)c1)c1ccc(F)c(F)c1 [Compound 24, (2R,3S)-5,7-dihydroxy-2-(3,4,5-trihydroxyphenyl)chroman-3-yl 3,4-difluorobenzoate] showed an IC50 of over 1000 nM. For O=C(O[C@@H]1Cc2c(O)cc(O)cc2O[C@@H]1c1cc(O)c(O)c(O)c1)c1ccc(F)c(F)c1 [Compound 25, (2R,3R)-5,7-dihydroxy-2-(3,4,5-trihydroxyphenyl)chroman-3-yl 3,4-difluorobenzoate], the IC50 was over 1000 nM. For O=C(O[C@@H]1Cc2c(O)cc(O)cc2O[C@@H]1c1cc(O)c(O)c(O)c1)c1ccn(O)c(=O)c1 [Compound 26, (2R,3R)-5,7-dihydroxy-2-(3,4,5-trihydroxyphenyl)chroman-3-yl 1-hydroxy-2-oxo-1,2-dihydropyridine-4-carboxylate], the IC50 was over 1000 nM. O=C(O[C@H]1Cc2c(O)cc(O)cc2O[C@@H]1c1cc(O)c(O)c(O)c1)c1cnc(O)c(O)c1 [Compound 27, (2R,3S)-5,7-dihydroxy-2-(3,4,5-trihydroxyphenyl)chroman-3-yl 5,6-dihydroxynicotinate] gave an IC50 of over 100 nM. O=C(O[C@H]1Cc2c(O)cc(O)cc2O[C@@H]1c1ccc(O)c(O)c1)c1ccc(O)c(O)c1 [Compound 28, (2R,3S)-2-(3,4-dihydroxyphenyl)-5,7-dihydroxychroman-3-yl 3,4-dihydroxybenzoate] gave an IC50 of over 1000 nM. Nc1ncc(C(=O)O[C@H]2Cc3c(O)cc(O)cc3O[C@@H]2c2ccc(O)c(O)c2)cc1O [Compound 29, (2R,3S)-2-(3,4-dihydroxyphenyl)-5,7-dihydroxychroman-3-yl 6-amino-5-hydroxynicotinate] showed an IC50 of over 1000 nM. CS(=O)(=O)Nc1ccc(C(=O)O[C@H]2Cc3c(O)cc(O)cc3O[C@@H]2c2ccc(O)c(O)c2)cc1O [Compound 30, (2R,3S)-2-(3,4-dihydroxyphenyl)-5,7-dihydroxychroman-3-yl 3-hydroxy-4-(methylsulfonamido)benzoate] gave an IC50 of over 1000 nM. O=C(O[C@@H]1Cc2c(O)cc(O)cc2O[C@H]1c1ccc(O)c(O)c1)c1ccc(O)c(O)c1 [Compound 31, (2S,3R)-2-(3,4-dihydroxyphenyl)-5,7-dihydroxychroman-3-yl 3,4-dihydroxybenzoate] was tested, and the IC50 was over 100 nM. Work on O=C(O[C@@H]1Cc2cccc(O)c2C[C@H]1c1cc(O)c(O)c(O)c1)c1cc(O)c(O)c(O)c1 [Compound 33, (2R,3S)-5-hydroxy-3-(3,4,5-trihydroxyphenyl)-1,2,3,4-tetrahydronaphthalen-2-yl 3,4,5-trihydroxybenzoate] yielded an IC50 of over 100 nM. With O=C(O[C@@H]1Cc2c(O)cc(O)cc2O[C@H]1c1cc(O)c(O)c(O)c1)c1ccc(O)c(O)c1 [Compound 34, (2S,3R)-5,7-dihydroxy-2-(3,4,5-trihydroxyphenyl)chroman-3-yl 3,4-dihydroxybenzoate] the IC50 was over 100 nM. In the case of Nc1ccc(C(=O)O[C@@H]2Cc3c(O)cc(O)cc3O[C@H]2c2cc(O)c(O)c(O)c2)cc1O [Compound 35, (2S,3R)-5,7-dihydroxy-2-(3,4,5-trihydroxyphenyl)chroman-3-yl 4-amino-3-hydroxybenzoate], the IC50 is reported as over 1000 nM. Work on Nc1ncc(C(=O)O[C@@H]2Cc3c(O)cc(O)cc3O[C@H]2c2cc(O)c(O)c(O)c2)cc1O [Compound 36, (2S,3R)-5,7-dihydroxy-2-(3,4,5-trihydroxyphenyl)chroman-3-yl 6-amino-5-hydroxynicotinate] yielded an IC50 of over 1000 nM. Compound CS(=O)(=O)Nc1ccc(C(=O)O[C@@H]2Cc3c(O)cc(O)cc3O[C@H]2c2cc(O)c(O)c(O)c2)cc1O [Compound 37, (2S,3R)-5,7-dihydroxy-2-(3,4,5-trihydroxyphenyl)chroman-3-yl 3-hydroxy-4-(methylsulfonamido)benzoate] has an IC50 of over 1000 nM.

From patent US20240336588A1, “COMPOSITIONS AND METHODS FOR ANTIOXIDANT AND ANTI-INFLAMMATORY THERAPEUTICS” (AVANTI BIOSCIENCES INC., priority 2021, published 2024)
